# Laboratory results: patent US9359298B2, “Cajanine structure analogous compound, preparation method and use” (INSTITUTE OF MEDICINAL BIOTECHNOLOGY, CHINESE ACADEMY OF …, priority 2011, dated 2016)
# Like-named read-outs stand apart in the source and are kept apart here.
# Tests used:
# Type in all cases: cell-based
# [1] = test system: Influenza A virus (hanfang359/95); assay: Determination of anti-influenza virus activity (CPE in MDCK cells); settings: for IC50: Influenza A virus, MDCK, 36 h; for anti-influenza virus activities compared with the lead compound cajanine: statement in words
# [2] = test system: Coxsackie virus B6; assay: Coxsackie virus activity assay (CPE in Vero cells); settings: for IC50: Vero
# [3] = test system: HCV; assay: Anti-hepatitis C virus (HCV) activity assay (HCV RNA in Huh7.5 cells); settings: for EC50: Hepatitis C virus, Huh7.5, 72 h, read-out: HCV EC50; for anti-HCV viral activity: statement in words
# Description: Inoculate Huh7.5 cells into 96-well plates to a density of 3×10^4 cells/cm^2, culture for 24h, infect the cells with 45 IU/cell HCV supernatant, meanwhile, add drug solutions or solvent control for treatment.
# [4] = test system: HIV-1 III B virus; assay: Anti-HIV activity assay (P24 antigen in MT-4 cells); settings: for IC50: Human immunodeficiency virus 1, MT4, 96 h, read-out: HIV IC50; for anti-HIV viral activity: statement in words
# [5] = test system: PC12 cells; assay: Neuroprotective activity assay, serum-deprived injury to PC12 cells (MTT); settings: for viability at 10 µM: Rattus norvegicus, PC-12, 48 h, read-out: serum-deprived (surviving PC12 cells, MTT 570 nm)
# Description: (§1) Discard the original culture media from confluent monolayers of PC12 cells (simulated neuronal cells), add DMEM complete medium with 5% FBS, 5% horse serum gently beat upon the cells with a pipette to completely disperse them, inoculate 100 μl cell suspension at a density of […] per well to 96 hole plates treated with poly-lysine (0.1 mg/ml) in advance, culture for 24h. Divide the experimenting cells into control group, model group and dosing groups. Add complete medium to the control group. Model groups includes rotenone group and serum-deprived group, add rotenone to the corresponding modules with a final concentration of 4 μM rotenone to take effect on the cells for 48 h, add serum-deprived groups with serum-free DMEM medium to take effect on the cells for 48 h. Dosing groups also includes two groups, one using rotenone module as model, another using serum-deprived module as model, and both add in 10 μM test compounds during modeling. 48h later, add 10 μl 5 mg/ml MTT, subsequently discard the supernatant 4h later and add in 150 μl DMSO, measure 570 nm absorbance to represent the numbers of surviving cells.
# [6] = test system: PC12 cells; assay: Neuroprotective activity assay, rotenone injury to PC12 cells (MTT); settings: for viability at 10 µM: Rattus norvegicus, PC-12, 48 h, read-out: rotenone (surviving PC12 cells, MTT 570 nm)
# Description: as §1
# [7] = Huh7.5 cells, 72 h, HCV RNA by RT-PCR, Reed-Muench
# [8] = MT-4 cells, HIV-1 III B 100TCID50, 96 h, P24 antigen
# [9] = 10 μM test compound, 48 h, Control 100.0 ± 9.2, Model 69.3 ± 4.1
# [10] = 10 μM test compound, 4 μM rotenone, 48 h, Control 100.0 ± 8.9, Model 73.2 ± 7.8
# [11] = read-out: COX-B6 IC50, Vero cells, about 100TCID50, CPE, Reed-Muench
Molecule,IC50 [1],"IC50 [2, 11]","EC50 [3, 7]","IC50 [4, 8]","viability at 10 µM [5, 9]","viability at 10 µM [6, 10]",also measured
methyl 2-hydroxy-3-isopentenyl-4-methoxy-6-(4′-methyl-cyclohexylenemethyl)benzoate [Compound 8n],–,–,–,–,–,–,"Influenza A virus (hanfang359/95) IC50 [1]: >2.06 µg/mL; COX-B6 IC50 [2]: >6.17 µg/mL; HCV EC50 [3, 7]: 1.06 µg/mL; HIV IC50 [4, 8]: 2.17 µg/mL; serum-deprived (surviving PC12 cells, MTT 570 nm) [5, 9]: 53.7 ± 3.8; rotenone (surviving PC12 cells, MTT 570 nm) [6, 10]: 78.0 ± 9.2"
"COC(=O)c1c(/C=C/c2cc(OC)cc(OC)n2)cc(OC)c(CC=C(C)C)c1O [Compound 8x, methyl 2-hydroxy-3-isopentenyl-4-methoxy-6-[(E)-2-(4,6-dimethoxypyrid-2-yl)ethenyl]benzoate]",0.65 µg/mL,4.58 µg/mL,1.87 µg/mL,0.79 µg/mL,79.8 ± 2.6%,76.5 ± 1.8%,anti-influenza virus activities compared with the lead compound cajanine [1]: significantly stronger than the lead compound cajanine
"COc1cc(/C=C/c2ccc(O)cc2)cc(O)c1CC=C(C)C [Compound 10q, 2-isopentenyl-3-methoxy-5-[(E)-4′-hydroxystyryl]-phenol]",1.39 µg/mL,2.35 µg/mL,0.89 µg/mL,2.38 µg/mL,79.5 ± 1.4%,76.8 ± 5.8%,"anti-influenza virus activities compared with the lead compound cajanine [1]: significantly stronger than the lead compound cajanine; anti-HCV viral activity [3]: stronger anti-HIV, HCV viral activities; anti-HIV viral activity [4]: stronger anti-HIV, HCV viral activities"
"COc1cc(/C=C/c2ccccc2)c(C(=O)O)c(OC(=O)NN)c1CC=C(C)C [Compound 29b, 2-Hydrazinoformyloxy-3-isopentenyl-4-methoxy-6-[(E)-styryl]benzoic acid]",1.21 µg/mL,–,–,–,–,–,IC50 ([2]; read-out: COX-B6 IC50): 0.67 µg/mL; EC50 [3]: 1.36 µg/mL; IC50 [4]: 1.88 µg/mL; viability at 10 µM [5]: 74.5 ± 4.6%; viability at 10 µM [6]: 78.9 ± 5.6%
"COc1cc(/C=C/c2ccccc2)c(C(=O)Nc2ccc(Cl)cc2)c(O)c1CC=C(C)C [Compound 9h, N-p-chlorophenyl2-hydroxy-3-isopentenyl-4-methoxy-6-[(E)-styryl]benzamide]",0.47 µg/mL,2.98 µg/mL,1.33 µg/mL,3.38 µg/mL,84.5 ± 5.1%,79.8 ± 2.1%,anti-influenza virus activities compared with the lead compound cajanine [1]: significantly stronger than the lead compound cajanine
"COc1c(Cl)c(/C=C/c2ccccc2)cc(O)c1CC=C(C)C [Compound 10s, 2-isopentenyl-3-methoxy-4-chloro-5-[(E)-styryl]phenol]",> 6.17 µg/mL,4.35 µg/mL,5.17 µg/mL,2.75 µg/mL,78.5 ± 6.3%,79.8 ± 3.5%,–
"COc1cc(/C=C/c2ccc(C)cc2)cc(O)c1CC=C(C)C [Compound 10g, 2-isopentenyl-3-methoxy-5-[(E)-4′-methylstyryl]phenol]",> 6.19 µg/mL,1.18 µg/mL,3.09 µg/mL,–,81.3 ± 2.5%,80.3 ± 3.2%,IC50 [4]: 1.18 µg/mL
"COC(=O)c1c(O)c(CC=C(C)C)c(OC)c(Cl)c1/C=C/c1ccccc1 [Compound 12, methyl 2-hydroxy-3-isopentenyl-4-methoxy-5-chloro-6-[(E)-styryl]benzoate]",6.17 µg/mL,> 6.17 µg/mL,6.87 µg/mL,8.17 µg/mL,60.2 ± 5.1%,74.5 ± 3.2%,–
2-isopentenyl-3-methoxy-5-[4′-methylcyclohexylene methyl]phenol [Compound 10n],–,–,–,–,–,–,"Influenza A virus (hanfang359/95) IC50 [1]: >0.69 µg/mL; COX-B6 IC50 [2]: >2.05 µg/mL; HCV EC50 [3, 7]: 0.89 µg/mL; HIV IC50 [4, 8]: 1.43 µg/mL; serum-deprived (surviving PC12 cells, MTT 570 nm) [5, 9]: 79.6 ± 2.8; rotenone (surviving PC12 cells, MTT 570 nm) [6, 10]: 78.6 ± 3.2"
COC(=O)c1c(/C=C/c2ccncc2)cc(OC)c(CC=C(C)C)c1O [Compound 8r],4.65 µg/mL,6.43 µg/mL,3.14 µg/mL,4.01 µg/mL,74.5 ± 5.7%,69.8 ± 8.4%,–
COc1cc(/C=C/c2ccccc2)c(C(=O)O)c(OC(=O)c2cnc[nH]2)c1CC=C(C)C [Compound 24q],1.98 µg/mL,1.35 µg/mL,1.54 µg/mL,2.85 µg/mL,92.3 ± 1.2%,90.5 ± 5.6%,protective effect on serum-deprived injury to PC12 cells ([5]; statement in words): the strongest activities; protective effect on rotenone injury to PC12 cells ([6]; statement in words): the strongest activities
"COc1cc(/C=C/c2ccccc2)c(C(=O)O)c(OC(=O)C(=O)O)c1CC=C(C)C [Compound 31b, 2-carboxyformyloxy-3-isopentenyl-4-methoxy-6-[(E)-styryl]benzoic acid]",0.54 µg/mL,1.21 µg/mL,0.99 µg/mL,2.8 µg/mL,88.6 ± 2.6%,80.5 ± 6.4%,"anti-influenza virus activities compared with the lead compound cajanine [1]: significantly stronger than the lead compound cajanine; anti-HCV viral activity [3]: stronger anti-HIV, HCV viral activities; anti-HIV viral activity [4]: stronger anti-HIV, HCV viral activities"
"CC/C=C/c1cc(OC)c(CC=C(C)C)c(O)c1C(=O)O [Compound 1h, 2-hydroxy-3-isopentenyl-4-methoxy-6-[(E)-buten-1-yl]benzoic acid]",1.92 µg/mL,15.3 µg/mL,2.6 µg/mL,2.39 µg/mL,43.8 ± 8.8%,70 ± 7.1%,–
"COc1cc(/C=C/c2ccccc2C)c(C(=O)O)c(O)c1CC=C(C)C [Compound 1e, 2-hydroxy-3-isopentenyl-4-methoxy-6-[(E)-2-methylstyryl]benzoic acid]",> 2.47 µg/mL,3.26 µg/mL,0.47 µg/mL,2.7 µg/mL,30.6 ± 12%,55.6 ± 9.9%,"anti-HCV viral activity [3]: stronger anti-HIV, HCV viral activities; anti-HIV viral activity [4]: stronger anti-HIV, HCV viral activities"
"COc1cc(/C=C/c2ccccc2)c(C(=O)O)c(OC(=O)CN(C)C)c1CC=C(C)C [Compound 24n, 2-(N,N-dimethylacetyloxy)-3-isopentenyl-4-methoxy-6-[(E)-styryl]benzoic acid]",7.21 µg/mL,1.35 µg/mL,1.97 µg/mL,3.12 µg/mL,75.8 ± 3.2%,79.8 ± 5.6%,–
"COc1cc(/C=C/c2ccccc2)c(C(=O)NC(N)=O)c(O)c1CC=C(C)C [Compound 23a, N-aminoformyl-2-hydroxy-3-isopentenyl-4-methoxy-6-[(E)-styryl]benzamide]",0.09 µg/mL,0.32 µg/mL,0.66 µg/mL,0.74 µg/mL,87.9 ± 5.8%,85.6 ± 8.7%,"anti-influenza virus activities compared with the lead compound cajanine [1]: significantly stronger than the lead compound cajanine; anti-HCV viral activity [3]: stronger anti-HIV, HCV viral activities; anti-HIV viral activity [4]: stronger anti-HIV, HCV viral activities"
"C/C(=C\c1cc(O)cc(O)c1)c1cc(O)cc(O)c1 [Compound 21h, 1,3-dihydroxy-5-[(E)-2-(3,5-dihydroxyphenyl)propen-1-yl]benzene]",5.84 µg/mL,6.98 µg/mL,4.46 µg/mL,5.28 µg/mL,74.8 ± 2.6%,71.2 ± 3.8%,–
"COc1cc(/C=C/c2ccccc2)c(C(=O)O)c(OCC2CNCCN2)c1CC=C(C)C (stereo not drawn) [Compound 26e, 2-(piperazin-2-yl)methoxy-3-isopentenyl-4-methoxy-6-[(E)-styryl]benzoic acid]",2.31 µg/mL,1.32 µg/mL,2.28 µg/mL,2.77 µg/mL,85.6 ± 2.9%,87.6 ± 5.6%,–
